Structures are written as SMILES.

One experiment relates to PC3 cells. The experiment is described as follows: PC3 growth inhibition (Cell-titer glo, 72 hours). In kind it is cell-based. The note with it: Homo sapiens, PC-3; compound concentration 1.667 μM; PC3 cells, 72 hours, Cell-titer glo; read-out: Percent Inhibition (PC3 growth inhibition). An outline of the steps: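 Compounds in AIM serum-free medium were applied for 72 h at 37 °C, 5% CO2 to PC3 cells plated overnight from RPMI1640 culture. Luminescence after 10 min CellTiter-Glo, normalised to DMSO, gave % viability at 1 μM or 1.667 μM, or GI50/LD50.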

For another experiment, the target named is hNAMPT protein (Homo sapiens (Human), UniProt P43490). The experiment is described as follows: NAMPT enzyme assay (TR-FRET/HTRF, BodiPY ligand, anti 6His-Tb). In kind it is binding. The following applies: for inhibition at 1 µM: NAMPT inhibition at compound concentration 1 μM; for IC50: NAMPT inhibition, IC50 range class, read-out: IC50. The procedure, abridged:
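Compound or DMSO was incubated for 1 h at room temperature, protected from light, with BodiPY ligand and hNAMPT labelled by terbium anti-6His antibody. The 520 nm to 486 nm emission ratio after 320 nm excitation gave inhibition versus vehicle, from which concentration-response curves yielded IC50.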
A general note: Time-resolved FRET reads energy transfer from a long-lived donor to a nearby acceptor.

hNAMPT protein, sequence (P43490 whole entry): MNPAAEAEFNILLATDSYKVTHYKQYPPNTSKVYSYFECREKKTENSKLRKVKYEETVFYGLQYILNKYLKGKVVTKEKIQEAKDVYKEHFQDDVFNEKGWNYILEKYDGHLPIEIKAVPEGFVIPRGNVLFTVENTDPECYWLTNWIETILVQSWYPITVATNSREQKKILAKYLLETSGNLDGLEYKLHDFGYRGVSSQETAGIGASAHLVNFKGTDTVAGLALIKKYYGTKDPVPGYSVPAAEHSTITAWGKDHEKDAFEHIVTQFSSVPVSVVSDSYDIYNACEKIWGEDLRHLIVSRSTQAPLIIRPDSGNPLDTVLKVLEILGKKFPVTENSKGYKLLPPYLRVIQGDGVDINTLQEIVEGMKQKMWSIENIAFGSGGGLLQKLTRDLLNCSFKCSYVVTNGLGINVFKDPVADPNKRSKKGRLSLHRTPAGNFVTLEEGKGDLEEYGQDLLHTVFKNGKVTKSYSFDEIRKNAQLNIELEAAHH

For the compound `Cc1ccc(-c2nc3cc(C(=O)NCCCc4ncc[nH]4)ccc3nc2-c2ccc(F)cc2)cc1C` [Compound I-433, 3-(3,4-dimethylphenyl)-2-(4-fluorophenyl)-N-[3-(1H-imidazol-2-yl)propyl]quinoxaline-6-carboxamide], the inhibition (usually the share of the control response that was lost under treatment) at 1.667 µM in the experiment on PC3 cells was 3%. Moreover, at hNAMPT protein (read-out: Percent Inhibition), the inhibition at 1 µM was found to be 79%. Also, the IC50 (usually the concentration at which inhibition is half-maximal) on hNAMPT protein lay within 100 to 500 nM.

With `O=C(NCCCc1ncc[nH]1)c1ccc2nc(-n3cccn3)c(-c3ccc(F)cc3)nc2c1` [Compound I-434, 3-(4-fluorophenyl)-N-[3-(1H-imidazol-2-yl)propyl]-2-(1H-pyrazol-1-yl)quinoxaline-6-carboxamide], the inhibition at 1.667 µM in the experiment with PC3 cells stood at 3%. For the same compound, at hNAMPT protein (read-out: Percent Inhibition), the inhibition at 1 µM was found to be 76%. Further, the half-maximal inhibitory concentration (IC50) at hNAMPT protein was in the range of 100 to 500 nM.

On to `CC(C)Oc1nc2ccc(C(=O)NCCCc3ncc[nH]3)cc2nc1-c1ccc(F)c(Cl)c1` [Compound I-435, 3-(3-chloro-4-fluorophenyl)-N-[3-(1H-imidazol-2-yl)propyl]-2-isopropoxyquinoxaline-6-carboxamide], for which the inhibition at 1.667 µM in the experiment with PC3 cells was 0%. Further, the inhibition at 1 µM on hNAMPT protein (read-out: Percent Inhibition) stood at 93%. Besides, the IC50 on hNAMPT protein was less than 100 nM.

In the case of `Nc1ccc(CCCNC(=O)c2ccc3nc(N4CCCCC4)c(-c4ccc(F)cc4)nc3c2)cn1` [Compound I-436, N-[3-(6-aminopyridin-3-yl)propyl]-3-(4-fluorophenyl)-2-(piperidin-1-yl)quinoxaline-6-carboxamide], the inhibition at 1.667 µM with PC3 cells was 2%. For the same compound, on hNAMPT protein (read-out: Percent Inhibition), the inhibition at 1 µM turned out to be 83%. On hNAMPT protein, the IC50 lay within 100 to 500 nM.

In the case of `CCOc1ccc(Cl)c(-c2nc3cc(C(=O)NCCCc4ncc[nH]4)ccc3nc2-c2ccc(F)cc2)c1` [Compound I-437, 3-(2-chloro-5-ethoxyphenyl)-2-(4-fluorophenyl)-N-[3-(1H-imidazol-2-yl)propyl]quinoxaline-6-carboxamide], the inhibition at 1.667 µM in the experiment with PC3 cells was determined as 3%. Besides, the inhibition at 1 µM at hNAMPT protein (read-out: Percent Inhibition) is 71%. Further, on hNAMPT protein, the IC50 lay within 100 to 500 nM.

For the compound `O=C(NCCCc1ncc[nH]1)c1ccc2nc(OCC3CCCO3)c(-c3ccc(F)cc3)nc2c1` (stereo not drawn) [Compound I-438, 3-(4-fluorophenyl)-N-[3-(1H-imidazol-2-yl)propyl]-2-(tetrahydrofuran-2-ylmethoxy)quinoxaline-6-carboxamide], the inhibition at 1.667 µM with PC3 cells is 2%. Moreover, the inhibition at 1 µM at hNAMPT protein (read-out: Percent Inhibition) is 99%. In addition, the IC50 on hNAMPT protein was less than 100 nM.

Regarding `O=C(NCCCc1ncc[nH]1)c1ccc2nc(OCc3ccccc3)c(-c3ccc(F)cc3)nc2c1` [Compound I-439, 2-(benzyloxy)-3-(4-fluorophenyl)-N-[3-(1H-imidazol-2-yl)propyl]quinoxaline-6-carboxamide], the inhibition at 1.667 µM in the experiment with PC3 cells is 3%. Besides, at hNAMPT protein (read-out: Percent Inhibition), the inhibition at 1 µM came out at 93%. For the same compound, on hNAMPT protein, the IC50 is less than 100 nM.

Regarding `CCOc1nc2ccc(C(=O)NCCCc3ncc[nH]3)cc2nc1-c1ccc(F)cc1` [Compound I-440, 2-ethoxy-3-(4-fluorophenyl)-N-[3-(1H-imidazol-2-yl)propyl]quinoxaline-6-carboxamide], the inhibition at 1.667 µM in the experiment on PC3 cells was 3%. Also, the inhibition at 1 µM at hNAMPT protein (read-out: Percent Inhibition) amounted to 94%. Also, the IC50 on hNAMPT protein is less than 100 nM.

On to `O=C(NCCCc1cnccn1)c1ccc2nc(N3CCCCC3)c(-c3ccc(F)cc3)nc2c1` [Compound I-441, 3-(4-fluorophenyl)-2-(piperidin-1-yl)-N-[3-(pyrazin-2-yl)propyl]quinoxaline-6-carboxamide], for which the inhibition at 1.667 µM in the experiment with PC3 cells is more than 99%. Also, the inhibition at 1 µM on hNAMPT protein (read-out: Percent Inhibition) worked out at 50%. On hNAMPT protein, the IC50 lay in the range of 500 to 1000 nM.

As for `O=C(NCCCc1ncc[nH]1)c1ccc2nc(OCCc3cn[nH]c3)c(-c3ccc(F)cc3)nc2c1` [Compound I-442, 3-(4-fluorophenyl)-N-[3-(1H-imidazol-2-yl)propyl]-2-[2-(1H-pyrazol-4-yl)ethoxy]quinoxaline-6-carboxamide], the inhibition at 1.667 µM with PC3 cells came to 3%. Also, on hNAMPT protein (read-out: Percent Inhibition), the inhibition at 1 µM is more than 99%. The IC50 at hNAMPT protein is less than 100 nM.

For `O=C(NCCc1ncc[nH]1)c1ccc2nc(-c3ccc(F)cc3)c(-c3ccc(Cl)s3)nc2c1` [Compound I-443, N-(2-(1H-imidazol-2-yl)ethyl)-3-(5-chlorothiophen-2-yl)-2-(4-fluorophenyl)quinoxaline-6-carboxamide], the inhibition at 1.667 µM with PC3 cells came to 11%. Moreover, the inhibition at 0.333 µM on hNAMPT protein (NAMPT inhibition at compound concentration 0.333 μM (data at 1 uM not available due to solubility limitations), read-out: Percent Inhibition) amounted to 57%. Moreover, the concentration for half-maximal inhibition (IC50) on hNAMPT protein lay within 100 to 500 nM.

Take `CC(C)c1nc2ccc(C(=O)NCCCc3ncc[nH]3)cc2nc1-c1ccc(F)cc1` [Compound I-444, 3-(4-fluorophenyl)-N-[3-(1H-imidazol-2-yl)propyl]-2-isopropylquinoxaline-6-carboxamide]: the inhibition at 1.667 µM with PC3 cells was 1%. Moreover, the inhibition at 1 µM at hNAMPT protein (read-out: Percent Inhibition) was found to be 77%. Further, the IC50 at hNAMPT protein lay within 100 to 500 nM.

As to `Cc1ccc(C(F)(F)F)cc1-c1nc2cc(C(=O)NCCCc3ncc[nH]3)ccc2nc1-c1ccc(F)cc1` [Compound I-445, 2-(4-fluorophenyl)-N-[3-(1H-imidazol-2-yl)propyl]-3-[2-methyl-5-(trifluoromethyl)phenyl]quinoxaline-6-carboxamide], in the experiment on PC3 cells, the inhibition at 1.667 µM came out at 2%. In addition, the inhibition at 1 µM on hNAMPT protein (read-out: Percent Inhibition) was 91%. Besides, at hNAMPT protein, the IC50 is less than 100 nM.

In the case of `Cc1noc(C)c1COc1nc2ccc(C(=O)NCCCc3ncc[nH]3)cc2nc1-c1ccc(F)cc1` [Compound I-446, 2-[(3,5-dimethylisoxazol-4-yl)methoxy]-3-(4-fluorophenyl)-N-[3-(1H-imidazol-2-yl)propyl]quinoxaline-6-carboxamide], the inhibition at 1.667 µM with PC3 cells worked out at 2%. In addition, at hNAMPT protein (read-out: Percent Inhibition), the inhibition at 1 µM was more than 99%. In addition, the IC50 on hNAMPT protein was less than 100 nM.

On to `CCOc1cccc(-c2nc3cc(C(=O)NCCCc4ncc[nH]4)ccc3nc2-c2ccc(F)cc2)c1` [Compound I-447, 3-(3-ethoxyphenyl)-2-(4-fluorophenyl)-N-[3-(1H-imidazol-2-yl)propyl]quinoxaline-6-carboxamide], for which the inhibition at 1.667 µM with PC3 cells was found to be 2%. In addition, the inhibition at 1 µM at hNAMPT protein (read-out: Percent Inhibition) amounted to 99%. Moreover, the IC50 at hNAMPT protein is less than 100 nM.

Consider `COc1ccc(-c2nc3cc(C(=O)NCCCc4ncc[nH]4)ccc3nc2-c2ccc(F)cc2)cc1` [Compound I-448, 2-(4-fluorophenyl)-N-[3-(1H-imidazol-2-yl)propyl]-3-(4-methoxyphenyl)quinoxaline-6-carboxamide], for which, in the experiment with PC3 cells, the inhibition at 1.667 µM is 2%. For the same compound, the inhibition at 1 µM at hNAMPT protein (read-out: Percent Inhibition) stood at 67%. In addition, at hNAMPT protein, the IC50 was in the range of 100 to 500 nM.

On to `O=C(NCCCc1ncc[nH]1)c1ccc2nc(-c3ccc(F)cc3)c(-c3cc(F)c(F)c(F)c3)nc2c1` [Compound I-449, 2-(4-fluorophenyl)-N-[3-(1H-imidazol-2-yl)propyl]-3-(3,4,5-trifluorophenyl)quinoxaline-6-carboxamide], for which the inhibition at 1.667 µM in the experiment on PC3 cells was determined as 3%. Also, the inhibition at 1 µM at hNAMPT protein (read-out: Percent Inhibition) was found to be 82%. The concentration for half-maximal inhibition (IC50) at hNAMPT protein lay within 100 to 500 nM.

For `Cc1ccc(C)c(-c2nc3cc(C(=O)NCCCc4ncc[nH]4)ccc3nc2-c2ccc(F)cc2)c1` [Compound I-450, 3-(2,5-dimethylphenyl)-2-(4-fluorophenyl)-N-[3-(1H-imidazol-2-yl)propyl]quinoxaline-6-carboxamide], the inhibition at 1.667 µM with PC3 cells came out at 1%. Besides, the inhibition at 1 µM at hNAMPT protein (read-out: Percent Inhibition) came out at 93%. The IC50 at hNAMPT protein is less than 100 nM.
